Data published in US11401253B2, “16-methyl-oxacyclohexadecan-2-one and 16-methyl-azacyclohexadecan-2-one derivatives as antimicrobial agents” (THE UNIVERSITY OF MONTANA, priority 2017, dated 2022).
≈ marks a conversion by molar mass, not a printed value. Where “and” joins values, the source holds several entries; their conditions need not be identical. Equal entries are not always repeated. Where two headings read alike, the source gives them in different places.

Columns and labels:
[1] = tested on: non-replicating persistence Mycobacterium tuberculosis (NRP-TB); assay: Low oxygen recovery assay (LORA), non-replicating persistence Mtb; assay type: cell-based; settings: Mycobacterium tuberculosis, read-out: MIC, LORA
[2] = tested on: Mycobacterium tuberculosis; assay: microbe, parasite or virus in culture; settings: read-out: MIC, MABA
[3] = tested on: Staphylococcus aureus (13709); assay: Antibiotic testing (MIC), S. aureus 13709; assay type: cell-based; settings: growth inhibition ≥90% relative to drug-free controls, read-out: minimum inhibitory concentration, Staphylococcus aureus (13709)
Streptococcus pyogenes = assay: Antibiotic testing (MIC), Streptococcus pyogenes; assay type: cell-based; settings: growth inhibition ≥90%, read-out: minimum inhibitory concentration, Streptococcus pyogenes
Candida glabrata = assay: Antibiotic testing (MIC), Candida glabrata; assay type: cell-based; settings: Nakaseomyces glabratus; growth inhibition ≥90%; read-out: minimum inhibitory concentration, Candida glabrata
Bacillus subtilis = assay: Antibiotic testing (MIC), Bacillus subtilis; assay type: cell-based; settings: growth inhibition ≥90%, read-out: minimum inhibitory concentration, Bacillus subtilis
C. albicans = assay: Antibiotic testing (MIC), C. albicans; assay type: cell-based; settings: Candida albicans; growth inhibition ≥90%; read-out: minimum inhibitory concentration, C. albicans
B. anthracis = assay: microbe, parasite or virus in culture; assay type: cell-based; settings: Bacillus anthracis, read-out: minimum inhibitory concentration, B. anthracis
Vero cell = assay: Cytotoxicity (MTS), Vero cells; assay type: cell-based, monkey; settings: Primates, 72 hours exposure
HepG2 = assay: Cytotoxicity (MTS), HepG2 cells; assay type: cell-based; settings: Homo sapiens, 72 hours exposure
J774 = assay: Cytotoxicity (MTS), J774 cells; assay type: cell-based, murine; settings: Mus musculus, 72 hours exposure
K. pneumoniae (10031) = assay: Antibiotic testing (MIC), gram negative K. pneumoniae; assay type: cell-based
Protocol: (§1) None of this collection of compounds were active against Gram-negative bacteria
(§2) Additionally, BPL 76 and derivatives were tested against a panel of gram negative bacteria including K. pneumonia, P. aeruginosa and E. coli (Table 12).

P. aeruginosa = assay: Antibiotic testing (MIC), gram negative P. aeruginosa; assay type: cell-based
Protocol: as §1, §2

E. coli (25922) = assay: Antibiotic testing (MIC), gram negative E. coli; assay type: cell-based
Protocol: as §1, §2

MMP-3 = biological target: T1, MMP-3 (Homo sapiens, UniProt P08254); assay: MMP-3 enzyme inhibition assay; assay type: biochemical
T1 construct: purchased BioMol
T1 sequence (P08254 100-477): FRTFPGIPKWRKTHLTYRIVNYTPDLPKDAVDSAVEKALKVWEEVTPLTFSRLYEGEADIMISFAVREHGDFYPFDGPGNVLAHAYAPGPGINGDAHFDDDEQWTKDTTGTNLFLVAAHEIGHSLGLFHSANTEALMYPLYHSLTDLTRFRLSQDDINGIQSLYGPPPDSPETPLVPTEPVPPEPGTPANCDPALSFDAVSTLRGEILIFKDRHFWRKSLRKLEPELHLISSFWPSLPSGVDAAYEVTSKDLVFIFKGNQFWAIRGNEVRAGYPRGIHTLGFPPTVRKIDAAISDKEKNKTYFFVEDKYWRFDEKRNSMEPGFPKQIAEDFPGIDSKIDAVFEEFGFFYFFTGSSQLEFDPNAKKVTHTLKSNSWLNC
Protocol: The two fungi were also co-cultured under controlled conditions. P. fuscum was grown in pure culture in potato dextrose broth (10×400 mL). After 24 h, an agar cube (8 mm^3) impregnated with P. camembertii/clavigerum mycelium was added to each flask and the resulting co-culture was shaken for 6 more days (200 rpm, room temperature). At time of harvest, methanol (50 mL/flask) was added, the mycelia were removed by gravity filtration and the broth was extracted with chloroform (3×2 L). The chloroform was removed in vacuo to yield 663 mg of crude extract. The crude extract was verified to be active in the MMP-3, caspase-1 and caspase-3 enzyme inhibition assays. Enzyme inhibitory activity was determined using specific BioMol enzyme inhibition assay kits for drug discovery as described in Stierle, A; Stierle, D. The Berkeleylactones, Antibiotic Macrolides from Fungal Coculture. J. Nat. Prod. 80, 4, 1150-1160.

S. aureus CAIRD116 = assay: Antibiotic testing, methicillin-resistant S. aureus CAIRD116; assay type: cell-based; settings: methicillin-resistant strain; for MIC: Staphylococcus aureus, CAIRD116
Text: (§3) Both the methyl ester and the diacetate derivatives of BPL 76 slightly less but still very strong activity against the same four MRSA strains (Table 11). The activities of compounds BPL 76 and BPL 81 were compared to several known antibiotics against three methicillin-resistant strains of S. aureus [FIG. 6, comparative data provided by Hartford Hospital, Center for Anti-Infective Research and Development (CAIRD)].

S. aureus CAIRD142 = assay: Antibiotic testing, methicillin-resistant S. aureus CAIRD142; assay type: cell-based; settings: methicillin-resistant strain; for MIC: Staphylococcus aureus, CAIRD142
Text: as §3

S. aureus CAIRD148 = assay: Antibiotic testing, methicillin-resistant S. aureus CAIRD148; assay type: cell-based; settings: methicillin-resistant strain; for MIC: Staphylococcus aureus, CAIRD148
Text: as §3

S. aureus (NE277) = assay: Antibiotic testing, methicillin-resistant S. aureus NE277; assay type: cell-based; settings: for MIC: Staphylococcus aureus, read-out: antibiotic testing data (MIC), S. aureus (NE277); for antibiotic testing data (MIC), S. aureus (NE277): methicillin-resistant strain
Text: as §3

[4] = non-replicating persistence conditions, known antibiotics
[5] = Klebsiella pneumoniae; read-out: MIC, K. pneumoniae (10031)
[6] = Pseudomonas aeruginosa; read-out: MIC, P. aeruginosa
[7] = Escherichia coli; read-out: MIC, E. coli (25922)

CC(=O)NC[C@H]1CN(c2ccc(N3CCOCC3)c(F)c2)C(=O)O1 [LIZ - Linezolidum, Linezolidum, reference compound]
MIC [1, 4]: 2 µM
MIC [2]: 2 µM

C[C@@H]1CCCCCCCCC[C@H](O)[C@H](O)/C=C/C(=O)O1 [BPL 95, (5R,6S,16R,E)-5,6-dihydroxy-16-methyloxacyclohexadec-3-en-2-one]
MIC [3]: 48 µg/mL (≈ 169 µM)
MIC (Streptococcus pyogenes): > 96 µg/mL
MIC (Candida glabrata): > 96 µg/mL
MIC (Bacillus subtilis): 48 µg/mL (≈ 169 µM)
MIC (C. albicans): > 96 µg/mL
MIC (B. anthracis): > 96 µg/mL
MIC ([1]; non-replicating persistence, hypoxic conditions): 24 µg/mL
IC50 (Vero cell): 75.6 µg/mL (≈ 266 µM)
IC50 (HepG2): > 100 µg/mL
IC50 (J774): 74.1 µg/mL (≈ 261 µM)
MIC [2]: > 100 µg/mL

C[C@@H]1CC(O)CCCCCCC[C@H](OC(=O)CCC(=O)O)C(=O)/C=C/C(=O)O1 (stereo partly drawn) [BPL 78, 4-(((6S,16R,E)-14-hydroxy-16-methyl-2,5-dioxooxacyclohexadec-3-en-6-yl)oxy)-4-oxobutanoic acid]
MIC (K. pneumoniae (10031); [5]): > 1000 µM
MIC (P. aeruginosa; [6]): > 1000 µM
MIC (E. coli (25922); [7]): > 1000 µM
MMP-3 inhibition (MMP-3): weaker inhibitors

C[C@H]1OC(=O)/C=C/[C@@H](O)[C@@H](OC(=O)CCC(=O)O)CCCCCCCC[C@@H]1O [BPL 86, 4-(((5R,6S,15 S,16R,E)-5,15-dihydroxy-16-methyl-2-oxooxacyclohexadec-3-en-6-yl)oxy)-4-oxobutanoic acid]
MIC [3]: 24 µg/mL (≈ 59.9 µM)
MIC (Streptococcus pyogenes): > 50 µg/mL
MIC (Candida glabrata): > 50 µg/mL
MIC (Bacillus subtilis): > 50 µg/mL
MIC (C. albicans): > 50 µg/mL
MIC (B. anthracis): 24 µg/mL (≈ 59.9 µM)
MIC (S. aureus CAIRD116): 47 µg/mL (≈ 117 µM)
antibiotic testing data (MIC), S. aureus CAIRD116 (S. aureus CAIRD116): 125 µM
MIC (S. aureus CAIRD142): 47 µg/mL (≈ 117 µM)
antibiotic testing data (MIC), S. aureus CAIRD142 (S. aureus CAIRD142): 125 µM
MIC (S. aureus CAIRD148): 47 µg/mL (≈ 117 µM)
antibiotic testing data (MIC), S. aureus CAIRD148 (S. aureus CAIRD148): 125 µM
MIC (S. aureus (NE277)): 47 µg/mL (≈ 117 µM)
antibiotic testing data (MIC), S. aureus (NE277) (S. aureus (NE277)): 125 µM
MIC (K. pneumoniae (10031); Klebsiella pneumoniae, read-out: MIC, K. pneumoniae (10031)): > 125 µM
MIC (P. aeruginosa; Pseudomonas aeruginosa, read-out: MIC, P. aeruginosa): > 125 µM
MIC (E. coli (25922); Escherichia coli, read-out: MIC, E. coli (25922)): > 125 µM
MMP-3 inhibition (MMP-3): weaker inhibitors

C[C@H]1OC(=O)/C=C/C(=O)[C@@H](OC(=O)CCC(=O)O)CCCCCCCC[C@@H]1O [BPL 77, 4-(((6S,15S,16R,E)-15-hydroxy-16-methyl-2,5-dioxooxacyclohexadec-3-en-6-yl)oxy)-4-oxobutanoic acid]
activity against K. pneumonia (in words) (K. pneumoniae (10031)): weakly active
MIC (K. pneumoniae (10031); [5]): 1000 µM and 398 µg/mL
MIC (P. aeruginosa; [6]): > 1000 µM
activity against E. coli (in words) (E. coli (25922)): weakly active
MIC (E. coli (25922); [7]): 500 µM and 199 µg/mL

Cc1ncc([N+](=O)[O-])n1CCO [MET - Metronidazole, Metronidazole, reference compound]
MIC [1, 4]: 449 µM

COc1nc2ccc(Br)cc2cc1[C@@H](c1ccccc1)[C@@](O)(CCN(C)C)c1cccc2ccccc12 [TMC207, reference compound]
MIC [1]: 0.1 µM
IC50 (Vero cell): > 10 µg/mL
IC50 (HepG2): > 10 µg/mL
IC50 (J774): > 10 µg/mL
MIC [2]: > 0.1 µM

O=C(O)CCC(=O)O[C@H]1CCCCCCCCC[C@@H](CO)OC(=O)/C=C/[C@H]1O [BPL 98, 4-(((5R,6S,16S,E)-5-hydroxy-16-(hydroxymethyl)-2-oxooxacyclohexadec-3-en-6-yl)oxy)-4-oxobutanoic acid]
MIC [3]: > 100 µg/mL
MIC (Streptococcus pyogenes): > 100 µg/mL
MIC (Candida glabrata): > 100 µg/mL
MIC (Bacillus subtilis): > 100 µg/mL
MIC (C. albicans): > 100 µg/mL
MIC (B. anthracis): > 100 µg/mL
MIC (S. aureus CAIRD116): > 100 µg/mL
antibiotic testing data (MIC), S. aureus CAIRD116 (S. aureus CAIRD116): >250 µM
MIC (S. aureus CAIRD142): > 100 µg/mL
antibiotic testing data (MIC), S. aureus CAIRD142 (S. aureus CAIRD142): >250 µM
MIC (S. aureus CAIRD148): > 100 µg/mL
antibiotic testing data (MIC), S. aureus CAIRD148 (S. aureus CAIRD148): >250 µM
MIC (S. aureus (NE277)): > 100 µg/mL
antibiotic testing data (MIC), S. aureus (NE277) (S. aureus (NE277)): >250 µM
MMP-3 inhibition (MMP-3): weaker inhibitors
